From ChEMBL document CHEMBL6182916, “Unexpected Discovery of a Novel Triphenylphosphonium Alkylalcohol That Triggers Cancer Cell Death via Mitophagy and Ferroptosis” (J Med Chem, 2025)
pIC50: −log10 of the molar value. Calls of active or inactive are those of the source. The calls are words filed in the database; no cut-off is given here.

What was measured:
[1] = test system: NCI-H1299; experiment: Antiproliferative activity against human NCI-H1299 cells assessed as inhibition of cell growth measured after 72 hrs by MTT assay; type: functional, cell-based; details: NCI-H1299, 72 h
[2] = Drug accumulation in mitochondria of human HCC827 cells at 10 uM incubated for 5 mins; type: ADME; details: hcc827, 5 min
[3] = Drug accumulation in mitochondria of human HCC827 cells at 10 uM incubated for 10 mins in presence of CCCP by RP-HPLC-UV analysis; type: ADME; details: hcc827, 10 min
[4] = test system: Mitochondrial membrane; experiment: Induction of mitochondrial membrane depolarization in human HCC827 cells assessed as increase green fluorescence intensity at 0.125 to 0.5 uM incubated for 4 hrs by rhodamine 123 staining based confocal microscopy analysis; type: cell membranes; details: dose 0.125-0.5 µM
[5] = test system: HCC827; experiment: Downregulation of HK-2 expression level in human HCC827 cells 0.5 uM by Western blot analysis; type: functional, cell-based; details: time 3-24 hrs
[6] = test system: HCC827; experiment: Downregulation of HK-2 expression level in human HCC827 cells 0.25 to 0.5 uM incubated for 24 hrs in presence of BFA by Western blot analysis; type: functional, cell-based; details: dose 0.25-0.5 µM
[7] = test system: HCC827; experiment: Downregulation of TIMM23 expression level in human HCC827 cells incubated for 24 hrs by Western blot analysis; type: functional, cell-based; details: dose 0.25-0.5 µM
[8] = test system: HEK-293T; experiment: Downregulation of […] expression level in human HEK293T cells harbouring PINK knockout at 0.25 to 0.5 uM; type: functional, cell-based; details: dose 0.25-0.5 µM
[9] = test system: HCC827; experiment: Induction of cell cycle arrest in human HCC827 assessed as increase in p21 expression level at 0.25 to 5 uM measured after 24 hrs by Western blot analysis; type: functional, cell-based; details: dose 0.25-5 µM
[10] = test system: HCC827; experiment: Induction of cell cycle arrest in human HCC827 cells assessed as accumulation of cells at G1 phase at 0.1 uM incubated for 24 hrs by PI staining based flow cytometry analysis (reference value: 66.44%); type: functional
[11] = test system: HCC827; experiment: Induction of cell cycle arrest in human HCC827 cells assessed as accumulation of cells at G2 phase at 0.1 uM incubated for 24 hrs by PI staining based flow cytometry analysis (reference value: 7.15%); type: functional
[12] = test system: HCC827; experiment: Induction of cell cycle arrest in human HCC827 cells assessed as accumulation of cells at G2 phase at 0.2 uM incubated for 24 hrs by PI staining based flow cytometry analysis (reference value: 7.15%); type: functional
[13] = test system: HCC827; experiment: Induction of cell cycle arrest in human HCC827 cells assessed as accumulation of cells at G2 phase at 0.4 uM incubated for 24 hrs by PI staining based flow cytometry analysis (reference value: 7.15%); type: functional
[14] = test system: HCC827; experiment: Induction of cell cycle arrest in human HCC827 cells assessed as accumulation of cells at S phase at 0.2 uM incubated for 24 hrs by PI staining based flow cytometry analysis (reference value: 26.41%); type: functional
[15] = test system: HCC827; experiment: Induction of ROS generation in human HCC827 cells assessed as increase in NAD+/NADH ratio at 1 uM incubated for 4 hrs by absorbance based analysis; type: functional, cell-based
[16] = test system: HCC827; experiment: Induction of ROS generation in human HCC827 cells at 1 uM incubated for 4 hrs in presence of VC by DCFH-DA staining based by absorbance based laser confocal microscopic analysis; type: functional, cell-based
[17] = test system: HCC827; experiment: Induction of ROS generation in human HCC827 cells assessed as fold change at 1 uM incubated for 4 hrs in presence of VC by DCFH-DA staining based by absorbance based laser confocal microscopic analysis (reference value: 2.67); type: functional
[18] = test system: HCC827; experiment: Induction of ferroptosis in human HCC827 cells assessed as decrease in GSH level incubated for 24 hrs by absorbance based analysis; type: functional, cell-based; details: dose 0.5-2 µM
[19] = test system: HCC827; experiment: Induction of ferroptosis in human HCC827 cells assessed as decrease in glutathione reductase activity at 0.25 to 0.5 uM incubated for 24 hrs by DTNB solution based based microplate reader analysis; type: functional, cell-based; details: dose 0.25-0.5 µM
[20] = test system: HCC827; experiment: Induction of mitochondrial dysfunction in human HCC827 cells assessed as mitochondrial shrinkage by TEM analysis; type: functional, cell-based
[21] = test system: HCC827; experiment: Induction of mitochondrial dysfunction in human HCC827 cells assessed as cristae reduction by TEM analysis; type: functional, cell-based
[22] = test system: HCC827; experiment: Induction of apoptosis in human HCC827 cells assessed as viable cells at 1.0 uM measured after 48 hrs by annexin V and PI staining based flow cytometry analysis (reference value: 96.74%); type: functional; details: read-out: Activity
[23] = test system: HCC827; experiment: Induction of apoptosis in human HCC827 cells assessed as late apoptotic cells at 0.5 uM measured after 48 hrs by annexin V and PI staining based flow cytometry analysis (reference value: 1.29%; type: functional
[24] = test system: HCC827; experiment: Induction of apoptosis in human HCC827 cells assessed as necrotic cells at 0.25 uM measured after 48 hrs by annexin V and PI staining based flow cytometry analysis (reference value: 1.18%); type: functional
[25] = test system: HCC827; experiment: Induction of apoptosis in human HCC827 cells assessed as early apoptotic cells at 1 uM measured after 24 hrs by annexin V and PI staining based flow cytometry analysis (reference value: 1.80%); type: functional
[26] = test system: HCC827; experiment: Induction of apoptosis in human HCC827 cells assessed as necrotic cells at 1 uM measured after 36 hrs by annexin V and PI staining based flow cytometry analysis (Rvb =0.84%); type: functional
[27] = test system: HCC827; experiment: Antiproliferative activity against human HCC827 cells assessed as cell viability measured after 48 hrs by MTT assay; type: functional, cell-based; details: HCC827, 48 h
[28] = test system: HCC827; experiment: Antiproliferative activity against human HCC827 cells assessed as increase in cell viability at 1 uM measured after 48 hrs in presence of 3-MA by MTT assay; type: functional, cell-based
[29] = test system: HCC827; experiment: Downregulation of SDHB expression in human HCC827 cells at 0.25 to 0.5 uM; type: functional, cell-based; details: dose 0.25-0.5 µM
[30] = test system: HCC827; experiment: Effect on COX1 expression in human HCC827 cells at 0.25 to 0.5 uM incubated for 24 hrs by Western blot analysis; type: functional, cell-based; details: dose 0.25-0.5 µM
[31] = test system: HCC827; experiment: Inhibition of cell migration in human HCC827 cells at 0.05 to 0.1 uM incubated for 24 hrs by crystal violet staining based transwell assay; type: functional; details: dose 0.05-0.1 µM
[32] = test system: HCC827; experiment: Inhibition of cell migration in human HCC827 cells by wound healing assay; type: functional, cell-based; details: dose 0.05-0.1 µM
[33] = test system: HCC827; experiment: Inhibition of colony formation in human HCC827 cells incubated for 72 hrs by crystal violet staining based analysis; type: functional, cell-based; details: dose 50-100 nM
[34] = Toxicity in female BALB/c mouse assessed as histopathological changes in liver at 30 mg/kg, ip measured for 7 days by H and E staining based analysis; type: organism-based; details: in vivo, 168 h, time 7 day
[35] = test system: HCC827; experiment: Antitumor activity against human HCC827 cells xenografted in female nude mouse model assessed as suppression of tumor growth at 5 to 10 mg/kg, ip measured every two days for 14 days; type: functional, organism-based; details: dose 5-10 mg/kg, time 14.0 day
[36] = test system: HCC827; experiment: Antimetastatic activity against human HCC827 cells xenografted in female nude mouse model assessed as decrease in vimentin level at 5 to 10 mg/kg, ip by Western blot analysis; type: functional, organism-based; details: dose 5-10 mg/kg
[37] = test system: HeLa; experiment: Induction of mitophagy in human HeLa cells harbouring mCherry-GFP tag assessed as visible mCherry fluorescence at 0.5 uM incubated for 24 hrs by confocal microscopy analysis; type: functional, cell-based

**Q.** With `Cc1ccc([P+](CCCCCCCCCCO)(c2ccc(C)cc2)c2ccc(C)cc2)cc1.[Br-]` as the compound, how does the pIC50 [1] read?
**A.** The pIC50 was 6.68.

**Q.** What about the Drug uptake [2] of the same compound?
**A.** Its Drug uptake is 93%.

**Q.** And the Drug uptake [3]?
**A.** The Drug uptake was “Not_active”.

**Q.** What about the Activity [4] of the same compound?
**A.** The Activity was “inactive”.

**Q.** What about the Activity [5] of the same compound?
**A.** Its Activity is “Time-dependent-effect”.

**Q.** And the Activity [6]?
**A.** Its Activity is “inactive”.

**Q.** And the Activity [7]?
**A.** The Activity was “Dose-dependent-effect”.

**Q.** What about the Activity [8] of the same compound?
**A.** Its Activity is “inactive”.

**Q.** What about the Activity [9] of the same compound?
**A.** Its Activity is “Active”.

**Q.** What about the Activity [10] of the same compound?
**A.** Its Activity is 71.14%.

**Q.** What about the Activity [11] of the same compound?
**A.** Its Activity is 4.83%.

**Q.** What about the Activity [12] of the same compound?
**A.** Its Activity is 3.91%.

**Q.** What about the Activity [13] of the same compound?
**A.** The Activity was 4.95%.

**Q.** And the Activity [14]?
**A.** The Activity was 19.35%.

**Q.** And the Activity [15]?
**A.** The Activity was “Active”.

**Q.** What about the Activity [16] of the same compound?
**A.** Its Activity is “inactive”.

**Q.** What about the Activity [17] of the same compound?
**A.** The Activity was 0.8.

**Q.** What about the Activity [18] of the same compound?
**A.** Its Activity is “Dose-dependent-effect”.

**Q.** What about the Activity [19] of the same compound?
**A.** The Activity was “Active”.

**Q.** What about the Activity [20] of the same compound?
**A.** Its Activity is “Active”.

**Q.** What about the Activity [21] of the same compound?
**A.** The Activity was “Active”.

**Q.** What about the viability at 1 µM [22] of the same compound?
**A.** The viability at 1 µM was 82.8%.

**Q.** And the Activity [23]?
**A.** The Activity was 7.12%.

**Q.** And the Activity [24]?
**A.** The Activity was 2.91%.

**Q.** What about the Activity [25] of the same compound?
**A.** Its Activity is 1.17%.

**Q.** What about the Activity [26] of the same compound?
**A.** The Activity was 0.96%.

**Q.** What about the pIC50 [27] of the same compound?
**A.** The pIC50 was 6.92.

**Q.** And the Activity [28]?
**A.** The Activity was “Active”.

**Q.** What about the Activity [29] of the same compound?
**A.** Its Activity is “Active”.

**Q.** What about the Activity [30] of the same compound?
**A.** The Activity was “Active”.

**Q.** What about the inhibition [31] of the same compound?
**A.** Its inhibition is “Active”.

**Q.** What about the inhibition [32] of the same compound?
**A.** The inhibition was “Dose-dependent-effect”.

**Q.** What about the inhibition [33] of the same compound?
**A.** Its inhibition is “Dose-dependent-effect”.

**Q.** And the Activity [34]?
**A.** Its Activity is “Non-toxic”.

**Q.** What about the Activity [35] of the same compound?
**A.** The Activity was “Active”.

**Q.** What about the Activity [36] of the same compound?
**A.** Its Activity is “Active”.

**Q.** What about the Activity [37] of the same compound?
**A.** Its Activity is “Active”.
